Patent US20050137255A1, “Crystalline escitalopram hydrobromide and methods for preparing the same” (H. Lundbeck A/S, priority 2002, published 2005)
“Also recorded” adds a separate entry of the source. Where a name gives a salt, the structure may show the parent alone.

Columns and labels:
Assay type in all cases: physicochemical
[1] = Thermogravimetric analysis (TGA) of Form I; settings: heated 10°/min
Experimental: The sample (1-5 mg) was heated 10°/min. on a TA Instruments TGA 2950 (available from TA Instruments of New Castle, Del.). No weight loss (<0.1%) was observed up to 150° C. Decomposition began at approximately 240° C.

[2] = Stability (stated property)
[3] = Dynamic vapor sorption (DVS) of Form I
[4] = Exposure of crystalline material to air (hygroscopicity); settings: sample exposed to air

decomposition began [1]: approximately 240 °C
weight loss ([1]; up to 150° C.): < 0.1%
stability [2]: stable
hygroscopicity ([3]; after water uptake at 80% relative humidity): very hygroscopic
water absorbed ([3]; at 80% relative humidity, corresponds to 14%): about 3.6 mol-equivalent of water
water absorbed ([3]; at 95% relative humidity): ~9 mol-equivalent of water
water absorbed ([3]; first run, at 80% relative humidity): 14%
water absorbed ([3]; first run, until the relative humidity exceeded 70%): no water was absorbed
hygroscopicity [4]: non-hygroscopic
SMILES: CN(C)CCC[C@@]1(c2ccc(F)cc2)OCc2cc(C#N)ccc21 [Form I, (S)-1-[3-(dimethylamino)propyl]-1-(4-fluorophenyl)-1,3-dihydro-5-isobenzofuran carbonitrile hydrobromide]
hygroscopicity ([3]; relative humidity less than (about) 70%, hydrobromide): not hygroscopic; also recorded: non-hygroscopic
